Measured values published in ChEMBL document CHEMBL4308851, “Alkyl-guanidine Compounds as Potent Broad-Spectrum Antibacterial Agents: Chemical Library Extension and Biological Characterization” (J Med Chem, 2018).
Converted amounts (≈) assume the structure as drawn. The source made the active and inactive calls. The rule behind the calls is not given here.

Key:
Pseudomonas aeruginosa [1] = test: Antibacterial activity against Pseudomonas aeruginosa ATCC 27853 after 18 hrs by microdilution broth method; type: functional
Escherichia coli [2] = test: Bactericidal activity against Escherichia coli CCUG assessed as log reduction in CFU at 2 times MIC concentration after 1 hr by time kill assay; type: functional
Klebsiella pneumoniae [3] = test: Antibacterial activity against Klebsiella pneumoniae ATCC […] after 18 hrs by microdilution broth method; type: functional
Escherichia coli [4] = test: Antibacterial activity against Escherichia coli CCUG after 24 hrs by microdilution broth method; type: functional
Acinetobacter baumannii [5] = test: Antibacterial activity against Acinetobacter baumannii ATCC 17978 after 18 hrs by microdilution broth method; type: functional
Pseudomonas aeruginosa [6] = test: Antibiofilm activity against Pseudomonas aeruginosa PAO1 ATCC 15692 assessed as effect on biofilm 3D structures at half MIC concentration after 24 hrs by AO-staining based confocal microscopy; type: functional, organism-based
Bacillus spizizenii = test: Antibacterial activity against Bacillus subtilis ATCC 6633 after 18 hrs by microdilution broth method; type: functional; details: ATCC 6633, 18 h
Acinetobacter baumannii [7] = test: Disruption of inner membrane integrity in Acinetobacter baumannii ATCC 19606 co-expressing pMP2200::PrrnB plasmid assessed as induction of […] conversion at 256 ug/ml measured at 10 mins intervals for 1 hr; type: functional, organism-based; details: ATCC 19606 = CIP 70.34 = JCM 6841
Pseudomonas aeruginosa [8] = test: Disruption of Pseudomonas aeruginosa PAO1 ATCC 15692 outer membrane integrity assessed as induction of NPN uptake after 30 mins by NPN fluorescence-based assay; type: functional, organism-based
Klebsiella pneumoniae [9] = test: Antibacterial activity against Klebsiella pneumoniae isolate SI-081 after 18 hrs by microdilution broth method; type: functional; details: isolate SI-081, 18 h
Pseudomonas aeruginosa [10] = test: Antibiofilm activity against Pseudomonas aeruginosa PAO1 ATCC 15692 at half MIC concentration after 24 hrs by crystal violet-based assay; type: functional, organism-based
[11] = tested on: Stenotrophomonas maltophilia; test: Antibacterial activity against Stenotrophomonas maltophilia isolate 634/08 after 18 hrs by microdilution broth method; type: functional; details: isolate 634/08, 18 h
Escherichia coli [12] = test: Antibiofilm activity against Escherichia coli MG1655 ATCC 47076 at half MIC concentration after 24 hrs by crystal violet-based assay; type: functional, organism-based; details: K-12 substr. MG1655 ATCC 47076
Acinetobacter baumannii [13] = test: Antibiofilm activity against Acinetobacter baumannii ATCC 19606 assessed as effect on biofilm 3D structures at half MIC concentration after 24 hrs by AO-staining based confocal microscopy; type: functional, organism-based; details: ATCC 19606 = CIP 70.34 = JCM 6841
Escherichia coli [14] = test: Antibiofilm activity against Escherichia coli MG1655 ATCC 47076 assessed as effect on biofilm 3D structures at half MIC concentration after 24 hrs by AO-staining based confocal microscopy; type: functional, organism-based; details: K-12 substr. MG1655 ATCC 47076
[15] = Hemolytic activity against human erythrocytes assessed as induction of hemolysis at 64 ug/ml after 30 mins; type: cell-based, Erythrocyte; details: read-out: Activity
Escherichia coli [16] = test: Disruption of inner membrane integrity in Escherichia coli MG1655 assessed as induction of […] conversion at 256 ug/ml measured at 10 mins intervals for 1 hr; type: functional, organism-based; details: K-12 substr. MG1655
Pseudomonas aeruginosa [17] = test: Disruption of inner membrane integrity in Pseudomonas aeruginosa PAO1 ATCC 15692 co-expressing pMP2200::PrrnB plasmid assessed as induction of OPNG conversion at 256 ug/ml measured at 10 mins intervals for 1 hr; type: functional, organism-based
Escherichia coli [18] = test: Disruption of Escherichia coli MG1655 ATCC 47076 outer membrane integrity assessed as induction of NPN uptake after 30 mins by NPN fluorescence-based assay; type: functional, organism-based; details: K-12 substr. MG1655 ATCC 47076
Escherichia coli [19] = test: Antibacterial activity against Escherichia coli CCUG after 18 hrs by microdilution broth method
Streptococcus pyogenes = test: Antibacterial activity against Streptococcus pyogenes ATCC 12344 after 18 hrs by microdilution broth method; type: functional; details: ATCC 12344, 18 h
Staphylococcus aureus = test: Antibacterial activity against Staphylococcus aureus ATCC 25923 after 18 hrs by microdilution broth method; type: functional; details: ATCC 25923, 18 h
Acinetobacter baumannii [20] = test: Disruption of Acinetobacter baumannii ATCC 19606 outer membrane integrity assessed as induction of NPN uptake after 30 mins by NPN fluorescence-based assay; type: functional, organism-based; details: ATCC 19606 = CIP 70.34 = JCM 6841
Burkholderia cepacia = test: Antibacterial activity against Burkholderia cepacia isolate SI-R2 after 18 hrs by microdilution broth method; type: functional; details: isolate SI-R2, 18 h
Acinetobacter baumannii [21] = test: Antibiofilm activity against Acinetobacter baumannii ATCC 19606 at half MIC concentration after 24 hrs by crystal violet-based assay; type: functional, organism-based; details: ATCC 19606 = CIP 70.34 = JCM 6841
Enterobacter cloacae = test: Antibacterial activity against Enterobacter cloacae isolate VA-417/02 after 18 hrs by microdilution broth method; type: functional; details: isolate VA-417/02, 18 h
Enterococcus faecalis = test: Antibacterial activity against Enterococcus faecalis ATCC 19433 after 18 hrs by microdilution broth method; type: functional; details: ATCC 19433, 18 h
Acinetobacter baumannii [22] = test: Antibacterial activity against Acinetobacter baumannii isolate AC-54/97 after 18 hrs by microdilution broth method; type: functional; details: isolate AC-54/97, 18 h
[23] = Apparent permeability of the compound after 5 hrs by PAMPA; type: ADME

## COLISTIN
Pseudomonas aeruginosa [1]
  MIC: 0.5 mg/L
Escherichia coli [2]
  Activity: Active
Klebsiella pneumoniae [3]
  MIC: 0.5 mg/L
Escherichia coli [4]
  MIC: 0.5 mg/L
Acinetobacter baumannii [5]
  MIC: 1 mg/L

## N=C(NCCCCCCCCN(CCCCCCCCNC(=N)NCC1CC1)C(=O)N(CCCCCCCCNC(=N)NCC1CC1)CCCCCCCCNC(=N)NCC1CC1)NCC1CC1
Pseudomonas aeruginosa [6]
  Activity: inactive
Bacillus spizizenii
  MIC: 8 mg/L (≈ 8.39 µM)
Acinetobacter baumannii [7]
  Activity: inactive
Pseudomonas aeruginosa [8]
  Activity: Dose-dependent effect
Klebsiella pneumoniae [9]
  MIC: 4 mg/L (≈ 4.2 µM)
Pseudomonas aeruginosa [1]; ATCC 27853, 18 h
  MIC: 64 mg/L (≈ 67.1 µM)
Pseudomonas aeruginosa [10]
  Activity: inactive
[11]
  MIC: 8 mg/L (≈ 8.39 µM)
Escherichia coli [12]
  Activity: inactive
Acinetobacter baumannii [13]
  Activity: inactive
Escherichia coli [14]
  Activity: inactive
[15]
  hemolysis at 0.5 h, 64 ug/ml: 0 to 7%
Klebsiella pneumoniae [3]
  MIC: 4 mg/L (≈ 4.2 µM)
Escherichia coli [16]
  Activity: inactive
Pseudomonas aeruginosa [17]
  Activity: inactive
Escherichia coli [18]
  Activity: Dose-dependent effect
Escherichia coli [19]
  MIC: 16 mg/L (≈ 16.8 µM)
Streptococcus pyogenes
  MIC: 2 mg/L (≈ 2.1 µM)
Staphylococcus aureus
  MIC: 16 mg/L (≈ 16.8 µM)
Acinetobacter baumannii [5]; ATCC 17978, 18 h
  MIC: 8 mg/L (≈ 8.39 µM)
Acinetobacter baumannii [20]
  Activity: Dose-dependent effect
Burkholderia cepacia
  MIC: 32 mg/L (≈ 33.6 µM)
Acinetobacter baumannii [21]
  Activity: inactive
Enterobacter cloacae
  MIC: 4 mg/L (≈ 4.2 µM)
Enterococcus faecalis
  MIC: 4 mg/L (≈ 4.2 µM)
Acinetobacter baumannii [22]
  MIC: 8 mg/L (≈ 8.39 µM)

## CO[C@H]1/C=C/O[C@@]2(C)Oc3c(C)c(O)c4c(O)c(c5c(nc6cc(C)ccn65)c4c3C2=O)NC(=O)/C(C)=C\C=C\[C@H](C)[C@H](O)[C@@H](C)[C@@H](O)[C@@H](C)[C@H](OC(C)=O)[C@@H]1C [RIFAXIMIN]
[23]
  Papp at 5 h: 0.6 nm/s
